Source: patent US20090191193A1, “Aryl Vinyl Sulfides, Sulfones, Sulfoxides and Sulfonamides, Derivatives Thereof and Therapeutic Uses Thereof” (TEMPLE UNIVERSITY-OF THE COMMONWEALTH SYSTEM OF HIGHER …, priority 2006, published 2009)

Experiments:
[1] = system: DU145 (prostate cancer); assay: Effect on tumor cell lines, viable cell count by trypan blue exclusion (Latham et al.): DU145; assay type: cell-based; conditions: DU145 prostate cancer cells, viable cell count 96 hours after treatment
[2] = system: K562 (chronic myelogenous leukaemia); assay: Effect on tumor cell lines, viable cell count by trypan blue exclusion (Latham et al.): K562; assay type: cell-based; conditions: K562 chronic myelogenous leukaemia cells, viable cell count 96 hours after treatment

Row | SMILES | melting point [°C] | IC50 ([1]; Homo sapiens, DU-145, 96 h) [µM] | IC50 ([2]; Homo sapiens, K562, 96 h) [µM] | IC50 [1] [µM] | IC50 [2] [µM]
1 | COc1ccccc1/C=C(\C#N)S(=O)(=O)Nc1ccc(Br)cc1 [Example 225] | 187 to 189 | 50 to 100 | 50 to 100 |  | 
2 | N#C/C(=C\c1ccc(O)c([N+](=O)[O-])c1)S(=O)(=O)Nc1ccc(Br)cc1 [Example 223] | > 250 | > 100 | > 100 |  | 
3 | N#C/C(=C\c1ccoc1)S(=O)(=O)Cc1ccc(Cl)cc1 [Example 122] | 150 to 154 | > 100 | > 100 |  | 
4 | N#C/C(=C\c1c[nH]c2ccccc12)S(=O)(=O)Nc1ccccc1Oc1ccccc1 [Example 197] | 210 to 212 | 50 to 100 | 50 to 100 |  | 
5 | Cc1ccc(/C=C(\C#N)S(=O)(=O)Nc2ccccc2Oc2ccccc2)s1 [Example 198] | 141 to 143 | 50 to 100 | 50 to 100 |  | 
6 | Cc1ccsc1/C=C(\C#N)S(=O)(=O)Nc1ccc(F)cc1 [Example 236] | 179 to 181 | > 100 | 50 to 100 |  | 
7 | COc1ccccc1/C=C(\C#N)S(=O)(=O)Cc1ccccc1 [Example 126] | 169 to 172 | > 100 | > 100 |  | 
8 | N#C/C(=C\c1c[nH]c2ccccc12)S(=O)(=O)Nc1ccc(Cl)cc1 [Example 205] | 216 to 217 | 50 to 100 | 25 to 50 |  | 
9 | N#C/C(=C\c1ccc(O)cc1O)S(=O)(=O)Cc1ccc(F)cc1 [Example 83] | 225 to 234 | 50 to 100 | 50 to 100 |  | 
10 | N#C/C(=C\c1c(F)c(F)c(F)c(F)c1F)S(=O)(=O)Nc1ccc(Br)cc1 [Example 221] | 174 to 176 | 1 to 10 | < 1 |  | 
11 | Cc1ccc(C)c(/C=C(\C#N)S(=O)(=O)Cc2ccccc2)c1 [Example 136] | 126 to 129 | 25 to 50 | 1 to 10 |  | 
12 | N#C/C(=C\c1c(F)c(F)c(F)c(F)c1F)S(=O)(=O)Nc1ccc(F)cc1 [Example 234] | 150 to 152 | 1 to 10 | < 1 |  | 
13 | N#C/C(=C\c1ccc(Br)cc1)S(=O)(=O)Nc1ccc(F)cc1 [Example 242] | 130 to 132 | 50 to 100 | 50 to 100 |  | 
14 | Cc1ccc(/C=C(\C#N)S(=O)(=O)Nc2ccc(F)cc2)s1 [Example 246] | 133 to 134 | > 100 | > 100 |  | 
15 | CN(C)c1ccc(/C=C(\C#N)S(=O)(=O)Cc2ccc(F)cc2)cc1 [Example 64] | 135 to 145 | 50 to 100 | 50 to 100 |  | 
16 | Cc1ccc(/C=C(\C#N)S(=O)(=O)Cc2ccc(Cl)cc2)s1 [Example 123] | 148 to 152 | > 100 | > 100 |  | 
17 | COc1ccc(NS(=O)(=O)/C(C#N)=C/c2ccc(C)s2)cc1 [Example 283] | 118 to 121 | > 100 | > 100 |  | 

Row | SMILES | melting point [°C] | IC50 ([1]; Homo sapiens, DU-145, 96 h) [µM] | IC50 ([2]; Homo sapiens, K562, 96 h) [µM] | IC50 [1] [µM] | IC50 [2] [µM]
18 | N#C/C(=C\c1cc(F)cc(F)c1)S(=O)(=O)Cc1ccccc1 [Example 143] | 148 to 150 | > 100 | 25 to 50 |  | 
19 | CCOc1cc(/C=C(\C#N)S(=O)(=O)Nc2ccc(C)cc2C)ccc1O [Example 275] | 146 to 148 | > 100 | 50 to 100 |  | 
20 | COc1ccc(/C=C(\C#N)S(=O)(=O)Nc2ccc(C)cc2C)c(F)c1 [Example 261] | 142 to 144 | > 100 | 50 to 100 |  | 
21 | N#C/C(=C\c1ccc(Br)cc1)S(=O)(=O)Nc1ccccc1Oc1ccccc1 [Example 196] | 129 to 134 | 50 to 100 | 50 to 100 |  | 
22 | COc1ccc(NS(=O)(=O)/C(C#N)=C/c2ccc(Br)cc2)cc1 [Example 190] | 106 to 107 | 50 | 50 |  | 
23 | Cc1ccc(C)c(/C=C(\C#N)S(=O)(=O)Cc2ccc(Br)cc2)c1 [Example 119] | 124 to 128 | > 100 | > 100 |  | 
24 | COc1ccc(NS(=O)(=O)/C(C#N)=C/c2ccc(F)cc2)cc1 [Example 200] | 107 to 109 | > 100 | 50 to 100 |  | 
25 | N#C/C(=C\c1c[nH]c2ccc(Br)cc12)S(=O)(=O)Cc1ccc(F)cc1 [Example 78] | 260 to 270 | 50 to 100 | 50 to 100 |  | 
26 | CN(C)c1ccc(/C=C(\C#N)S(=O)(=O)Nc2ccc(F)cc2)cc1 [Example 233] | 179 to 180 | > 100 | 50 to 100 |  | 
27 | N#C/C(=C\c1ccc(Br)cc1)S(=O)(=O)Nc1ccc(Br)cc1 [Example 217] | 174 to 176 | 50 to 100 | 25 to 50 |  | 
28 | N#C/C(=C\c1ccc(O)c(O)c1)S(=O)(=O)Cc1cccc(Br)c1 [Example 116] | 119 to 121 | > 100 | > 100 |  | 
29 | N#C/C(=C\c1ccc(O)c([N+](=O)[O-])c1)S(=O)(=O)Cc1ccc(Cl)cc1 [Example 59] | 195 to 205 | 50 to 100 | 50 to 100 |  | 
30 | COc1ccc(NS(=O)(=O)/C(C#N)=C/c2ccc(O)cc2)cc1 [Example 289] | 181 to 182 | > 100 | 50 to 100 |  | 
31 | COc1ccc(NS(=O)(=O)/C(C#N)=C/c2cc(C)ccc2C)cc1 [Example 282] | 125 to 127 | 50 to 100 | 50 to 100 |  | 
32 | N#C/C(=C\c1ccccc1O)S(=O)(=O)Nc1ccc(Br)cc1 [Example 228] | 169 to 170 | 25 to 50 | 25 to 50 |  | 
33 | N#C/C(=C\c1ccccc1OCc1ccccc1)S(=O)(=O)Cc1ccc(Cl)cc1 [Example 70] | 129 to 137 | > 100 | > 100 |  | 

Second part, the molecule after the results:

Row | melting point [°C] | IC50 ([1]; Homo sapiens, DU-145, 96 h) [µM] | IC50 ([2]; Homo sapiens, K562, 96 h) [µM] | IC50 [1] [µM] | IC50 [2] [µM] | SMILES
34 | 155 to 160 | 50 to 100 | 25 to 50 |  |  | COc1ccc(CS(=O)(=O)/C(C#N)=C/c2ccc(OC)c(OC)c2)cc1 [Example 148]
35 | 146 to 148 | > 100 | 50 to 100 |  |  | COc1ccc(/C=C(\C#N)S(=O)(=O)Nc2ccc(Br)cc2)c(OC)c1OC [Example 218]
36 | 250 to 255 | > 100 | > 100 |  |  | N#C/C(=C\c1ccc(O)cc1O)S(=O)(=O)Cc1ccc(Cl)cc1 [Example 60]
37 | 150 to 165 | 25 to 50 | 25 to 50 |  |  | COc1ccc(/C=C(\C#N)S(=O)(=O)Cc2ccc(Cl)cc2Cl)c(OC)c1OC [Example 93]
38 | 150 to 165 |  |  | 50 to 100 | 50 to 100 | CCOc1cc(/C=C(\C#N)S(=O)(=O)Cc2ccc(Cl)cc2)ccc1O [Example 74]
39 | 198 to 200 | 25 | 5 |  |  | COc1cc(OC)c(/C=C(\C#N)S(=O)(=O)Cc2ccc(OC)c(N)c2)c(OC)c1 [Example 36]
40 | 197 to 199 | 25 to 50 | 10 to 25 |  |  | COc1cc(OC)c(/C=C(\C#N)S(=O)(=O)Nc2ccc(Br)cc2)c(OC)c1 [Example 215]
41 | 282 to 292 |  |  | 50 to 100 | 50 to 100 | N#C/C(=C\c1c[nH]c2ccc(Cl)cc12)S(=O)(=O)Cc1ccc(Cl)cc1Cl [Example 75]
42 | 182 to 192 | > 100 | 50 to 100 |  |  | COc1cc(OC)c(/C=C(\C#N)S(=O)(=O)Cc2ccc(F)cc2)c(OC)c1 [Example 79]
43 | 142 to 146 | > 100 | 50 to 100 |  |  | COc1cc(/C=C(\C#N)S(=O)(=O)Cc2ccccc2)cc(OC)c1OC [Example 131]
44 | 124 to 125 | > 100 | > 100 |  |  | COc1ccc(/C=C(\C#N)S(=O)(=O)Nc2ccc(C)cc2C)c(OC)c1OC [Example 272]
45 | 132 to 134 | 50 to 100 | 50 to 100 |  |  | COc1cc(OC)c(/C=C(\C#N)S(=O)(=O)Nc2ccc(C)cc2C)c(OC)c1 [Example 254]
46 | 116 to 122 | > 100 | 50 to 100 |  |  | N#C/C(=C\c1ccoc1)S(=O)(=O)Cc1ccc(Cl)cc1Cl [Example 104]
47 | 184 to 186 | 10 to 25 | 10 to 25 |  |  | N#C/C(=C\c1cc(Cl)cc(Cl)c1Cl)S(=O)(=O)Nc1ccc(F)cc1 [Example 243]
48 | 124 to 126 | 50 to 100 | 50 to 100 |  |  | N#C/C(=C\c1ccc(F)cc1Cl)S(=O)(=O)Cc1ccc(Cl)cc1 [Example 41]
49 | 125 to 130 | > 100 | > 100 |  |  | COc1ccc(/C=C(\C#N)S(=O)(=O)Cc2ccccc2)c(OC)c1 [Example 132]
50 | 164 to 170 | 50 to 100 | > 100 |  |  | COc1cc(OC)c(OC)cc1/C=C(\C#N)S(=O)(=O)Cc1ccc(Cl)cc1Cl [Example 107]
51 | 220 to 230 | 50 to 100 | 25 to 50 |  |  | N#C/C(=C\c1ccc(O)cc1O)S(=O)(=O)Cc1ccc(Cl)cc1Cl [Example 92]
52 | 111 to 113 | > 100 | > 100 |  |  | CCOc1ccc(/C=C(\C#N)S(=O)(=O)Nc2ccc(OC)cc2)cc1OC [Example 287]
53 | 161 to 163 | > 100 | 50 to 100 |  |  | COc1cc(OC)c(OC)cc1/C=C(\C#N)S(=O)(=O)Nc1ccc(C)cc1C [Example 258]
54 | 140 to 142 | > 100 | 50 to 100 |  |  | COc1ccc(NS(=O)(=O)/C(C#N)=C/c2ccc(OC)c(OC)c2OC)cc1 [Example 285]
55 | 145 to 155 | > 100 | 50 to 100 |  |  | COc1ccc(/C=C(\C#N)S(=O)(=O)Cc2ccc(Cl)cc2)c(F)c1 [Example 49]
